Assay results from patent publication US8673890B2, “2,3-dihydro-1H-isoindol-1-imine derivatives useful as thrombin PAR-1 receptor antagonist” (Janssen Pharmaceutica NV, priority 2009, dated 2014).
“And” between values parts separate entries of the source, which are not always exact repeats. Equal entries are not always repeated.

Key:
[1] = tested on: platelets in platelet-rich plasma; assay: Thrombin-induced platelet aggregation in platelet-rich plasma; type: cell-based, human; conditions: for inhibition at 10 µM: 10 μM compound; for IC50: multiple values = individual measurements
Experimental: (§1) The procedure for this assay is similar to that described in Biological Example 2, above. Briefly, platelet aggregation studies were performed according to the method of Bednar et al. (Bednar, B., Condra, C., Gould, R. J., and Connolly, T. M., Thromb. Res., 77:453-463 (1995)). Platelet-rich plasma (PRP) concentrates prepared from healthy volunteers who were aspirin free for at least 7 days by venipuncture using EDTA as anticoagulant was purchased from Biological Specialties, Inc. (Colmar, Pa.). PPP (platelet-poor-plasma) was obtained by centrifugation of PRP at Max (3,000 rpms) for 15 min at room temperature. PRP was diluted to yield platelet count of 300×10^3 platelets/μL with PPP. For thrombin induced platelet aggregation: 118 μL of 500 mM GPRP-NH2 was added to 12 mL of 300×10^3 platelets before using (to clean the fibrinogen in the plasma.) GPRP was added just before the experiment. 15 μL of test compound solutions were added to 120 μL of platelets 5 min prior the agonist additions. Platelet aggregation was initiated by the addition of agonist shown to achieve 60-70% aggregation. Antagonist potency was estimated as a % inhibition of the control Har peptide or thrombin response to obtain an IC50.
(§2) Where multiple values are listed for a particular compound, said numbers represent individual measurements (tests) for said compound.

[2] = tested on: platelets in platelet-rich plasma; assay: Har peptide-induced platelet aggregation in platelet-rich plasma; type: cell-based, human; conditions: multiple values = individual measurements
Experimental: as §1, §2

[3] = target: T1, thrombin receptor (PAR-1) (Homo sapiens, UniProt P25116); assay: FLIPR-based calcium-flux assay with human smooth muscle cells (Har peptide agonist); type: cell-based; conditions: HSMC; 30 nM Har (PAR1) peptide agonist; 80-min drug incubation; multiple values = individual measurements
T1 construct: Human aortic smooth muscle cells (HSMC) were purchased from Cascade Biologics; host or cells: human aortic smooth muscle cells (HSMC)
T1 sequence (P25116 22-425): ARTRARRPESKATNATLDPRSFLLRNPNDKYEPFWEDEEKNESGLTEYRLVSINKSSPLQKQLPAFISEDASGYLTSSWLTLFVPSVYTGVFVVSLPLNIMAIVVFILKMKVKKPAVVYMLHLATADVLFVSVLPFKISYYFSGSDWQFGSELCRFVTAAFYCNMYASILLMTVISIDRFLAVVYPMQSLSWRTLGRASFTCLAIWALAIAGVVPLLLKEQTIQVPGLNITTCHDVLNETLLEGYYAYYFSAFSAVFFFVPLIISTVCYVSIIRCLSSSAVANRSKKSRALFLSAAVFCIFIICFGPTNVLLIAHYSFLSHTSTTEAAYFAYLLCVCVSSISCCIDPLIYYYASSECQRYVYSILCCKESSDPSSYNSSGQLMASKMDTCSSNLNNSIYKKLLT
Experimental: Human aortic smooth muscle cells (HSMC) were purchased from Cascade Biologics (Portland, Oreg.) and cultured in M-231 containing smooth muscle cell growth supplement and 1× Antibiotic-Antimycotic.
To determine agonist concentration for compound testing: On the day prior to the assay, 100 μL of cells (2×10^5/mL) were seeded in clear, flat-bottom black-wall, tissue culture treated polystyrene 96-well plates and incubated at 37° C., 5% CO2. On the day of the assay, 50 μL of complete dye loading solution (FLIPR Calcium 3 Kit, Molecular Devices) was added to each well containing 100 μL of culture media. The cells were incubated for 30-45 min at 37° C., in 5% CO2 before initiating the assay on the FLIPR. The agonist effect of PAR1 peptide (S-(p-F-Phe)-Har-L-Har-KY-NH2; Har=homoarginine; referred to herein as “Har” peptide) was tested and the EC50 was determined. The EC60-70 dose was used (30 nM) for compound testing.
Compound testing: On the day prior to the assay, 90 μL of cells (2.2×10^5/mL) were seeded in clear, flat-bottom black-wall, tissue culture treated polystyrene 96-well plates and incubated at 37° C., 5% CO2. On the day of the assay, the test compounds were prepared at 10× in 3% DMSO Hanks buffer and 10 μL was added to each well (final DMSO concentration of 0.3%). The cells were incubated 20 min at 37° C., 5% CO2. Culture medium containing testing compounds was dumped and the cells were washed four times with DPBS containing 0.1% of BSA and re-fed with 80 μL of growth medium. 70 μL of BD (fluorescent) dye was loaded to the cells and incubated 45 min at 37° C. incubator. The plates were equilibrated to room temperature for 15 min. 4× PAR1 peptide (30 nM final concentration) agonist plate and the cell plate were placed in FLIPR's assay chamber. 50 μL agonist was added to the cells and data was recorded for 5 min. Raw fluorescence data was exported for each well and tabulated versus time within an ASCII file. Data was then imported into Excel® and the peak response over basal level was determined. The percent inhibition for each test compound was calculated by the changes of fluorescent density as a % inhibition of the control Har peptide response to obtain an IC50.
Representative compounds of the present invention were tested according to the procedure described in Biological Example 1 above, with results in Table 8 below. In Table 8 below, where multiple values are listed for a particular compound, said numbers represent individual measurements (tests) for said compound.

Row | Compound | IC50 ([1]; Homo sapiens, Platelet) | IC50 ([2]; Homo sapiens, Platelet) | IC50 [2] | IC50 [3] | IC50 [1] | inhibition at 10 µM ([1]; Homo sapiens)
1 | CC(C)(C)c1cc(C(=O)CN2Cc3cc4c(cc3C2=N)OCCCO4)cc(C(C)(C)C)c1O [Compound 4, 1-(3,5-di-tert-butyl-4-hydroxyphenyl)-2-(7-imino-3,4-dihydro-[1,4]dioxepino[2,3-f]isoindol-8(2H,7H,9H)-yl)ethanone] |  |  |  | 0.13 µM and 0.068 µM |  | 
2 | CNCCC1COc2cc3c(cc2OC1)C(=N)N(CC(=O)c1cc(C(C)(C)C)c(O)c(C(C)(C)C)c1)C3 (centres unmarked) [Compound 37] |  |  |  | > 3 µM |  | 
3 | COc1c(N2CCOCC2)cc(C(=O)CN2Cc3cc4c(cc3C2=N)OCCNCCO4)cc1C(C)(C)C [Compound 42, 1-(3-tert-butyl-4-methoxy-5-morpholinophenyl)-2-(9-imino-3,4,5,6-tetrahydro-[1,4,7]dioxazonino[2,3-f]isoindol-10(2H,9H,11H)-yl)ethanone] |  |  |  | 0.66 µM and > 1 µM and 1.3 µM |  | 
4 | CC(C)(C)c1cc(C(=O)CN2Cc3cc4c(cc3C2=N)OCC(CCN2CCCC2)CO4)cc(C(C)(C)C)c1O (centres unmarked) [Compound 13] |  |  |  | > 3 µM |  | 
5 | CN(C)CCC1COc2cc3c(cc2OC1)C(=N)N(CC(=O)c1cc(C(C)(C)C)c(O)c(C(C)(C)C)c1)C3 (centres unmarked) [Compound 16, 1-(3,5-di-tert-butyl-4-hydroxyphenyl)-2-(3-(2-(dimethylamino)ethyl)-7-imino-3,4-dihydro-[1,4]dioxepino[2,3-f]isoindol-8(2H,7H,9H)-yl)ethanone] |  |  |  | > 1 µM |  | 
6 | COc1c(N2CCOCC2)cc(C(=O)CN2Cc3cc4c(cc3C2=N)OCCN(C(=O)OC(C)(C)C)CCO4)cc1C(C)(C)C [Compound 41, tert-butyl 10-(2-(3-tert-butyl-4-methoxy-5-morpholinophenyl)-2-oxoethyl)-9-imino-2,3,5,6,10,11-hexahydro-[1,4,7]dioxazonino[2,3-f]isoindole-4(9H)-carboxylate] |  |  |  | 0.54 µM and > 1 µM and 1.2 µM |  | 
7 | COc1c(N2CCOCC2)cc(C(=O)CN2Cc3cc4c(cc3C2=N)OCC(CCN2CCOCC2)CO4)cc1C(C)(C)C (centres unmarked) [Compound 43] |  |  |  | 0.45 µM and 0.68 µM |  | 
8 | CC(C)(C)c1cc(C(=O)CN2Cc3cc4c(cc3C2=N)OCCCCO4)cc(C(C)(C)C)c1O [Compound 5] |  |  |  | 0.032 µM |  | 
9 | CC1(C)COc2cc3c(cc2OC1)C(=N)N(CC(=O)c1cc(C(C)(C)C)c(O)c(C(C)(C)C)c1)C3 [Compound 9] |  |  |  | 0.16 µM |  | 
10 | COc1c(N2CCOCC2)cc(C(=O)CN2Cc3cc4c(cc3C2=N)OCC(CC2NCCS2)CO4)cc1C(C)(C)C (centres unmarked) [Compound 44] |  |  |  | 0.1 µM and 0.12 µM |  | 
11 | CC(C)(C)c1cc(C(=O)CN2Cc3cc4c(cc3C2=N)OCC(CC=O)CO4)cc(C(C)(C)C)c1O (centres unmarked) [Compound 14, 2-(8-(2-(3,5-di-tert-butyl-4-hydroxyphenyl)-2-oxoethyl)-7-imino-2,3,4,7,8,9-hexahydro-[1,4]dioxepino[2,3-f]isoindol-3-yl)acetaldehyde] |  |  |  | 0.78 µM |  | 
12 | CC(C)(C)c1cc(C(=O)CN2Cc3cc4c(cc3C2=N)OCC(CCN2CCOCC2)CO4)cc(C(C)(C)C)c1O (centres unmarked) [Compound 12] |  |  |  | 0.551 µM |  | 
13 | CN1CCN(CCC2COc3cc4c(cc3OC2)C(=N)N(CC(=O)c2cc(C(C)(C)C)c(O)c(C(C)(C)C)c2)C4)CC1 (centres unmarked) [Compound 15] |  |  |  | > 3 µM |  | 

Second part, led by results:

Row | IC50 ([1]; Homo sapiens, Platelet) | IC50 ([2]; Homo sapiens, Platelet) | IC50 [2] | IC50 [3] | IC50 [1] | Compound | inhibition at 10 µM ([1]; Homo sapiens)
14 | 4710 nM | 1820 nM | 1040 nM | 0.094 µM and 0.1 µM |  | COc1c(N2CCOCC2)cc(C(=O)CN2Cc3cc4c(cc3C2=N)OCc2ccccc2CO4)cc1C(C)(C)C [Compound 46] | 34%
15 |  |  |  | 1.1 µM and > 3 µM and 0.75 µM |  | COc1c(Br)cc(C(=O)CN2Cc3cc4c(cc3C2=N)OCc2ncccc2CO4)cc1C(C)(C)C [Compound 54] | 
16 | 2190 nM | 1300 nM |  | 0.05 µM and 0.1 µM |  | COc1c(N2CCOCC2)cc(C(=O)CN2Cc3cc4c(cc3C2=N)OC/C=C\CO4)cc1C(C)(C)C [Compound 97] | 
17 |  | > 10000 nM |  | 0.092 µM and 0.22 µM |  | Cc1cc2c(cc1C)COc1cc3c(cc1OC2)CN(CC(=O)c1cc(C(C)(C)C)c(O)c(C(C)(C)C)c1)C3=N [Compound 99] | 23%
18 | > 10000 nM | > 10000 nM | > 10000 nM | 0.054 µM and 0.082 µM and 0.014 µM | > 10000 nM | CC(C)(C)c1cc(C(=O)CN2Cc3cc4c(cc3C2=N)OCc2ccc(C(=O)O)cc2CO4)cc(C(C)(C)C)c1O [Compound 81] | 
19 | > 10000 nM | > 10000 nM | > 10000 nM | 0.25 µM and 0.14 µM |  | CC(C)(C)c1cc(C(=O)CN2Cc3cc4c(cc3C2=N)OCc2cc(C(=O)O)ccc2CO4)cc(C(C)(C)C)c1O [Compound 72] | 
20 | 1920 nM | 1610 nM |  | 0.022 µM and 0.027 µM |  | CC(C)(C)c1cc(C(=O)CN2Cc3cc4c(cc3C2=N)OC/C=C\CO4)cc(C(C)(C)C)c1O [Compound 100, (Z)-1-(3,5-di-tert-butyl-4-hydroxyphenyl)-2-(8-imino-2H-[1,4]-dioxocino[2,3-f]isoindol-9(5H,8H,10H)-yl)ethanone] | 
21 | > 10000 nM | > 10000 nM |  | 0.27 µM and > 1 µM |  | COc1c(N2CCOCC2)cc(C(=O)CN2Cc3cc4c(cc3C2=N)OCc2cc(C)c(C)cc2CO4)cc1C(C)(C)C [Compound 98] | 
22 | > 10000 nM | 2560 nM | 4450 nM | 0.68 µM and 0.2 µM and 0.57 µM |  | COc1c(N2CCOCC2)cc(C(=O)CN2Cc3cc4c(cc3C2=N)OCC(F)(F)C(F)(F)CO4)cc1C(C)(C)C [Compound 90, 1-(3-tert-butyl-4-methoxy-5-morpholinophenyl)-2-(3,3,4,4-tetrafluoro-8-imino-4,5-dihydro-2H-[1,4]-dioxocino[2,3-f]isoindol-9(3H,8H,10H)-yl)ethanone] | 30%
23 | 3230 nM | 1570 nM | 2300 nM | 0.031 µM and 0.015 µM | 3250 nM | CC(C)(C)c1cc(C(=O)CN2Cc3cc4c(c(F)c3C2=N)OCc2ccccc2CO4)cc(C(C)(C)C)c1O [Compound 96] | 
24 | 3550 nM | 1630 nM | 1210 nM | 0.091 µM and 0.024 µM | 2660 nM | COc1c(N2CCOCC2)cc(C(=O)CN2Cc3cc4c(cc3C2=N)OCc2c(F)ccc(F)c2CO4)cc1C(C)(C)C [Compound 88] | 
25 | > 10000 nM |  | 2430 nM and > 10000 nM and 11100 nM |  | > 10000 nM | COC(=O)c1ccc2c(c1)COc1cc3c(cc1OC2)CN(CC(=O)c1cc(C(C)(C)C)c(O)c(C(C)(C)C)c1)C3=N [Compound 55] | 
26 |  |  |  | 0.15 µM and 0.18 µM |  | COc1c(N2CCOCC2)cc(C(=O)CN2Cc3cc4c(cc3C2=N)OCC(CCN2CCSC2)CO4)cc1C(C)(C)C (centres unmarked) [Compound 45] | 
27 |  |  |  | 0.044 µM and 0.053 µM |  | CC(C)(C)c1cc(C(=O)CN2Cc3cc4c(cc3C2=N)OCc2cccnc2CO4)cc(C(C)(C)C)c1O [Compound 48] | 
28 |  |  |  | 0.35 µM |  | COC(=O)c1cc2c(cc1C(=O)OC)COc1cc3c(cc1OC2)CN(CC(=O)c1cc(C(C)(C)C)c(O)c(C(C)(C)C)c1)C3=N [Compound 102] | 
29 |  |  |  | 1.1 µM |  | COC(=O)c1cc2c(cc1C(=O)OC)COc1cc3c(cc1OC2)CN(CC(=O)c1cc(N2CCOCC2)c(OC)c(C(C)(C)C)c1)C3=N [Compound 103] | 
